Article PMC9145622, “Synthesis, Biological Evaluation, and Docking Studies of Antagonistic Hydroxylated Arecaidine Esters Targeting mAChRs” (Molecules, 2022)
Read-outs that look alike come from different tables or passages of the source.

What was measured:
[1] = target: T1, hM4 (Homo sapiens, UniProt P08173); test: Competitive [3H]NMS radioligand binding, CHO-K1 membranes expressing hM4; conditions: for Displacement ± SD hM4: displacement of [3H]NMS, single ligand concentration corresponding to a Ki value of 1 µM (Cheng-Prusoff)
T1 sequence (P08173 1-479): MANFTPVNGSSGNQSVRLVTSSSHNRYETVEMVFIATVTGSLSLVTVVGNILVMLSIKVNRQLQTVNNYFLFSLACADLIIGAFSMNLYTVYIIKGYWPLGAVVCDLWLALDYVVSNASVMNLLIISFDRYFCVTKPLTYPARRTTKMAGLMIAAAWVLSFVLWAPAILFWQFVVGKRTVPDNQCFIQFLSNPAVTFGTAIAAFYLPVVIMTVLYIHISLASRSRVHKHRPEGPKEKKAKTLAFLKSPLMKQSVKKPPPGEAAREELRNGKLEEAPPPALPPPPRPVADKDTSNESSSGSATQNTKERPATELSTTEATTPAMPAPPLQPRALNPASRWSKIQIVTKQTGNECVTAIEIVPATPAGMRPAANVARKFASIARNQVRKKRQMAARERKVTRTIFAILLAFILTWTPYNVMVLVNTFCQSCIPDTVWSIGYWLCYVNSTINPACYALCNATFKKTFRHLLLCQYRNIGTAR
Excerpt: (§1) The arecaidine esters’ affinities towards the human mAChR subtypes hM1–hM5 were studied in a competitive radioligand binding assay using CHO-K1 cell membrane homogenates expressing a single mAChR subtype and tritiated N-methyl scopolamine methyl chloride ([^3H]NMS). To speed up our affinity testing regime, we subjected all test substances to preliminary single-concentration displacement assays, as described previously. Compounds with percent displacements below 75% at any of the subtypes were dropped from further investigations (Table S1). For compounds meeting the percent displacement threshold (8c, 10b, 10c, 17b, 18b, and 25), inhibition constants (Ki) were assessed in dose-dependent displacement experiments (Table 2).
(§2) Cell membranes bearing hM1-hM5 receptors were prepared as described previously. Briefly, stably transfected CHO-K1 cells were grown to at least 80% confluency in T175 flasks, washed with ice-cold DPBS, and scraped into a mixture of ice-cold 2 mL 10 mM Tris-HCl, 1 mM EDTA-buffer, pH 7.4 and 200 µL protease inhibitor. A cell homogenate was prepared by passing the cell suspension through a G29 needle. The cell homogenates corresponding to two T175 flasks were combined and subsequently centrifuged (10 min, 1000× g, 4 °C). Ultracentrifugation of the supernatant (1 h, 100,000× g, 4 °C) yielded a membrane pellet, which was suspended in 250 µL 50 mM Tris-HCl buffer, pH 7.4 and stored at −80 °C.
(§3) Then, 5 µL of test compound in DMSO, 50 µL of [^3H]NMS in assay buffer, and 445 µL of membrane suspension in assay buffer were incubated for 90 min at 23 °C in PP tubes. Maximum binding was measured by using 5 µL DMSO, and nonspecific binding was measured by using 5 µL of 1 µM scopolamine in DMSO. The effective concentration of [^3H]NMS was 0.2 nM, 0.3 nM, 0.8 nM, 0.2 nM, and 1 nM for M1–M5 and 4–30 µg membrane were used per tube. The membrane-bound radioactivity was recovered by filtration through Whatman™ GF/B glass fiber filters presoaked in aqueous 0.1% PEI using an M-36 tygon tubed cell harvester (Brandel®, Gaithersburg, MD, USA). Membranes were washed three times with ice-cold washing buffer (50 mM Tris, pH 7.4) before being dried, transferred to 2 mL scintillation cocktail (UltimaGold™, high flashpoint LSC cocktail, PerkinElmer, Waltham, MA, USA) and counted in a β-counter (Hidex TDCR liquid scintillation counter in CPM mode). IC50 values were calculated by a variable slope logistic regression using at least five distinct concentrations of test compounds, pipetted in triplicates.

[2] = High-throughput HPLC-logD; assay type: physicochemical; conditions: octadecyl-poly(vinyl alcohol) column, methanol / 0.01 M sodium phosphate buffer pH 7.4
Excerpt: For this, logD values were estimated in an HPLC-based high-throughput assay employing an octadecyl-poly(vinyl alcohol) stationary phase. The absence of silanol groups renders this type of column especially suited in case of analytes with hydrogen bond donor capabilities as it avoids overestimating their lipophilicity.
Briefly, a mixture of toluene (≥98%, Sigma-Aldrich, St. Louis, MO, USA) and triphenylene (≥99.9%, Carl Roth, Karlsruhe, Germany) was used as internal standard. Samples were dissolved in the internal standard mixture. Using gradient elution, the injection volume was set to 7 µL, the flow rate was 1.5 mL/min, and the mobile phase consisted of a mixture of methanol and 0.01 M sodium phosphate buffer pH 7.4. The HPLC-logD values were derived from the measured retention times following the previously published equation [21, 40].

[3] = target: T2, hM2 (Homo sapiens, UniProt P08172); test: Competitive [3H]NMS radioligand binding, CHO-K1 membranes expressing hM2; conditions: for Displacement ± SD hM2: displacement of [3H]NMS, single ligand concentration corresponding to a Ki value of 1 µM (Cheng-Prusoff)
T2 sequence (P08172 1-466): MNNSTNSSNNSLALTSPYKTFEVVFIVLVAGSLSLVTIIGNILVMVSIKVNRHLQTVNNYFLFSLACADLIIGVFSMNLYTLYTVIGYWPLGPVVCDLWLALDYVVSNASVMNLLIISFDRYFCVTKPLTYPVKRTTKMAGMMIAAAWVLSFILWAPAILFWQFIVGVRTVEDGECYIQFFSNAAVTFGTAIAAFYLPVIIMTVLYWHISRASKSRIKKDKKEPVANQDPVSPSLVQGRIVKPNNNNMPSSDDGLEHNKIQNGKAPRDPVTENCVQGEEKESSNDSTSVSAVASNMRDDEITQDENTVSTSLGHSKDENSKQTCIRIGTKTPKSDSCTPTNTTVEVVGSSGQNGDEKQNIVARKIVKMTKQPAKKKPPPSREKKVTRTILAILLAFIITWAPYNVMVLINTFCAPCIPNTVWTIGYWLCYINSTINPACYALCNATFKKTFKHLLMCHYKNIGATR
Excerpt: as §1, §2, §3

[4] = target: T3, hM1 (Homo sapiens, UniProt P11229); test: Competitive [3H]NMS radioligand binding, CHO-K1 membranes expressing hM1; conditions: for Displacement ± SD hM1: displacement of [3H]NMS, single ligand concentration corresponding to a Ki value of 1 µM (Cheng-Prusoff)
T3 sequence (P11229 1-460): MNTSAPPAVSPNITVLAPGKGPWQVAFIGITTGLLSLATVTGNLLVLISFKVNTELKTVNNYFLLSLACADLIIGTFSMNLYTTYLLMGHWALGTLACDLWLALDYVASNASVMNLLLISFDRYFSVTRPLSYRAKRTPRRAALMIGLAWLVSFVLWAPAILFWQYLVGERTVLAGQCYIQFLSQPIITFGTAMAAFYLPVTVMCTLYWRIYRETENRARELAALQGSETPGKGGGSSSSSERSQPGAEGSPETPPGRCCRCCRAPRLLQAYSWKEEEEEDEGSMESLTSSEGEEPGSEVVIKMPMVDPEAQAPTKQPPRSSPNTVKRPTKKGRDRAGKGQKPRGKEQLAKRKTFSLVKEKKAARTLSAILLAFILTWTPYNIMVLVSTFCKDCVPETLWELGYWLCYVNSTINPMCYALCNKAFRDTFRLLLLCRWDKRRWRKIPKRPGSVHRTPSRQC
Excerpt: as §1, §2, §3

[5] = target: T4, hM3 (Homo sapiens, UniProt P20309); test: Competitive [3H]NMS radioligand binding, CHO-K1 membranes expressing hM3; conditions: for Displacement ± SD hM3: displacement of [3H]NMS, single ligand concentration corresponding to a Ki value of 1 µM (Cheng-Prusoff)
Excerpt: as §1, §2, §3

[6] = target: T5, hM5 (Homo sapiens, UniProt P08912); test: Competitive [3H]NMS radioligand binding, CHO-K1 membranes expressing hM5; conditions: for Displacement ± SD hM5: displacement of [3H]NMS, single ligand concentration corresponding to a Ki value of 1 µM (Cheng-Prusoff)
T5 sequence (P08912 1-532): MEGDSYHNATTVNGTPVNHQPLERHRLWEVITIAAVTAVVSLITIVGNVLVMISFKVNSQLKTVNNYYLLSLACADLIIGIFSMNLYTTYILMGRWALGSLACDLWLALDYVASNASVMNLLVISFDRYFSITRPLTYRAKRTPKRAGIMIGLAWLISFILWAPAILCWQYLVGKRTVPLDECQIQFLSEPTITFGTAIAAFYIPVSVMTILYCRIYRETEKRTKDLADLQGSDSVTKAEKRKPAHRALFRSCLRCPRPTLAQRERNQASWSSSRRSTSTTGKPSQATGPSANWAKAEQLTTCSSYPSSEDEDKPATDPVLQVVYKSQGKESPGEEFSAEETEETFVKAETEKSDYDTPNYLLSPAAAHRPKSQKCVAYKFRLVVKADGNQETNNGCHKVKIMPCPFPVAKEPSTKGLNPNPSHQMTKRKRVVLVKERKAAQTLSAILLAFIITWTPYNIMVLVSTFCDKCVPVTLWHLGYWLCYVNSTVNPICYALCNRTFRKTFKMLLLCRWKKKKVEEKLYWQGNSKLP
Excerpt: as §1, §2, §3

[7] = design: method as in Ozenil et al. [10]; conditions: ref Ozenil et al. [10]; cited from earlier work
[8] = target: T5, hM5; design: method as in Ozenil et al. [10]; conditions: [3H]NMS; ref Ozenil et al. [10]; read-out: Affinity: Ki ± SD hM5; cited from earlier work
[9] = target: T4, hM3; design: method as in Ozenil et al. [10]; conditions: [3H]NMS; ref Ozenil et al. [10]; read-out: Affinity: Ki ± SD hM3; cited from earlier work
[10] = target: T1, hM4; design: method as in Ozenil et al. [10]; conditions: [3H]NMS; ref Ozenil et al. [10]; read-out: Affinity: Ki ± SD hM4; cited from earlier work
[11] = target: T2, hM2; design: method as in Ozenil et al. [10]; conditions: [3H]NMS; ref Ozenil et al. [10]; read-out: Affinity: Ki ± SD hM2; cited from earlier work
[12] = target: T3, hM1; design: method as in Ozenil et al. [10]; conditions: [3H]NMS; ref Ozenil et al. [10]; read-out: Affinity: Ki ± SD hM1; cited from earlier work

T4 sequence (P20309 whole entry): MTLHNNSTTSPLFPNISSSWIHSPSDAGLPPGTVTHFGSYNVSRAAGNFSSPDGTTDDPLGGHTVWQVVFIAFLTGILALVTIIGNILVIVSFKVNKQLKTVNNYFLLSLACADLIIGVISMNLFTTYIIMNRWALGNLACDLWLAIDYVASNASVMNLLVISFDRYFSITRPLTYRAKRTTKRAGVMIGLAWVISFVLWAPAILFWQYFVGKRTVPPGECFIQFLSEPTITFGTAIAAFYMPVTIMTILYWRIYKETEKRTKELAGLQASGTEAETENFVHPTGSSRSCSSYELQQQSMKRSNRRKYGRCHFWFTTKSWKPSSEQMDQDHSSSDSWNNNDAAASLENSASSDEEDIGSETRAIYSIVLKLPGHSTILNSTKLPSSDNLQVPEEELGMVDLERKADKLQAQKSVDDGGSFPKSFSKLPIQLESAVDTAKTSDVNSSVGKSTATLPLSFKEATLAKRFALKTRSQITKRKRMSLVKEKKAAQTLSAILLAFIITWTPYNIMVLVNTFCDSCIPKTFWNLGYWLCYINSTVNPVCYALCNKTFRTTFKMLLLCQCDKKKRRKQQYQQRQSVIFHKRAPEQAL

| Structure (SMILES) | chromatographic logD [2] | Displacement ± SD hM4 [1] | Displacement ± SD hM2 [3] | Displacement ± SD hM1 [4] | Displacement ± SD hM3 [5] | Displacement ± SD hM5 [6] | further results |
| --- | --- | --- | --- | --- | --- | --- | --- |
| CN1CCC=C(C(=O)OCc2cccc(CO)c2)C1 [Compound 8b, 3-(hydroxymethyl)benzyl 1-methyl-1,2,5,6-tetrahydropyridine-3-carboxylate] | 0.87 ± 0.01 | 22 ± 1% | 23 ± 4% | 31 ± 3% | 34 ± 4% | 29 ± 6% |  |
| CN1CCC=C(C(=O)OC(CO)c2ccccc2)C1 (centres unmarked) [Compound 22, 2-hydroxy-1-phenylethyl 1-methyl-1,2,5,6-tetrahydropyridine-3-carboxylate] | 0.92 ± 0.08 | 51 ± 5% | 28 ± 5% | 61 ± 2% | 33 ± 8% | 72 ± 5% |  |
| CN1CCC=C(C(=O)OC(c2ccccc2)c2ccccc2)C1 [DPMA, benzhydryl 1-methyl-1,2,5,6-tetrahydropyridine-3-carboxylate] |  |  |  |  |  |  | HPLC-logD [7]: 3.32 ± 0.04 ^2; Ki [8]: 14 ± 1 nM; Ki [9]: 56 ± 22 nM; Ki [10]: 16 ± 4 nM; x-Fold Selectivity for hM1 vs. hM2 ([4]; ratio of the Ki values hM2/hM1): 35.5 x-fold; x-Fold Selectivity for hM1 vs. hM3 ([4]; ratio of the Ki values hM3/hM1): 18.1 x-fold; x-Fold Selectivity for hM1 vs. hM4 ([4]; ratio of the Ki values hM4/hM1): 5.2 x-fold; x-Fold Selectivity for hM1 vs. hM5 ([4]; ratio of the Ki values hM5/hM1): 4.5 x-fold; Ki [11]: 110 ± 39 nM; Ki [12]: 3.1 ± 0.5 nM |
| CN1CCC=C(C(=O)Oc2ccccc2-c2ccccc2O)C1 [Compound 27, 2′-hydroxy-[1,1′-biphenyl]-2-yl 1-methyl-1,2,5,6-tetrahydropyridine-3-carboxylate] | 2.69 ± 0.01 | 46 ± 3% | 34 ± 7% | 37 ± 6% | 51 ± 9% | 65 ± 11% | melting point: 142 to 144 °C |

Now from value to compound, other results behind:

| chromatographic logD [2] | Structure (SMILES) | Displacement ± SD hM4 [1] | Displacement ± SD hM2 [3] | Displacement ± SD hM1 [4] | Displacement ± SD hM3 [5] | Displacement ± SD hM5 [6] | further results |
| --- | --- | --- | --- | --- | --- | --- | --- |
| 2.6 ± 0.1 | CN1CCC=C(C(=O)OC(c2ccccc2)c2cccc(CO)c2)C1 (centres unmarked) [Compound 10b, (3-(hydroxymethyl)phenyl)(phenyl)methyl 1-methyl-1,2,5,6-tetrahydropyridine-3-carboxylate] |  |  |  |  |  | Ki ([1]; [3H]NMS, CHO-hM4 cell membrane preparations, read-out: Affinity: Ki ± SD hM4): 32.3 ± 3.8 nM; Ki ([3]; [3H]NMS, CHO-hM2 cell membrane preparations, >1000 values from two independent (single-concentration) experiments, read-out: Affinity: Ki ± SD hM2): 198 ± 35 nM; Ki ([4]; [3H]NMS, CHO-hM1 cell membrane preparations, read-out: Affinity: Ki ± SD hM1): 12.5 ± 0.8 nM; Ki ([5]; [3H]NMS, CHO-hM3 cell membrane preparations, read-out: Affinity: Ki ± SD hM3): 70.4 ± 1.8 nM; Ki ([6]; [3H]NMS, CHO-hM5 cell membrane preparations, read-out: Affinity: Ki ± SD hM5): 49.1 ± 8.5 nM |
| 0.79 ± 0.01 | CN1CCC=C(C(=O)OCc2ccccc2CO)C1 [Compound 8a, 2-(hydroxymethyl)benzyl 1-methyl-1,2,5,6-tetrahydropyridine-3-carboxylate] | 56 ± 9% | 43 ± 2% | 66 ± 5% | 72 ± 4% | 72 ± 3% |  |
